Some test systems named below: OVCAR-5 ovarian; SNB-19 CNS; NCI-H23 lung; NCI-H522 lung; SW-620 colon; TK-10 renal; OVCAR-4 ovarian; UO-31 renal.
Assay in all cases: NCI tumour cell line growth inhibition, 48 h

“And” between values parts separate entries of the source, which are not always exact repeats. Equal values may be shown once.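 The compound was tested at five concentrations on cells cultured in 96-well plates, with a 48-hour exposure period. GI50 is the concentration that inhibits growth by half. At the TGI there is no net growth.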

For the molecule `COc1ccc(-c2nc(-c3nc4ccc(Cl)cc4[nH]3)c3ccccn23)cc1`, the GI50 in the test with OVCAR-5 ovarian is 7.32 µM; in the test with SNB-19 CNS it was 3.6 µM; in the test on NCI-H23 lung, 7.52 µM; in the test with NCI-H522 lung it was 4.24 µM; in the test on SW-620 colon it was 4.07 µM; with TK-10 renal it was 2.01 µM. Moreover, the figures for the GI50 in the test with OVCAR-4 ovarian and in the test on UO-31 renal were 1.89 µM and 1.74 µM, respectively. The TGI in the test on OVCAR-5 ovarian stood at 29.3 µM; in the test with SNB-19 CNS, 20.7 µM; in the test with NCI-H23 lung it was 45.7 µM; in the test with NCI-H522 lung, 18.4 µM; in the test on SW-620 colon, 22.5 µM; in the test with TK-10 renal it was 5.11 µM. Moreover, the TGI came to 4.74 µM with OVCAR-4 ovarian and 4.11 µM in the test with UO-31 renal.

Take `Cc1ccc(NC(=O)CC(=O)n2nc(C)c(N=Nc3ccccc3C(=O)O)c2C)cc1`: the TGI in the test with OVCAR-5 ovarian, in the test on SNB-19 CNS, with NCI-H23 lung, in the test with NCI-H522 lung, in the test on SW-620 colon and in the test on TK-10 renal was greater than 100 µM each time. The TGI in the test with OVCAR-4 ovarian and in the test on UO-31 renal was greater than 100 µM in each case.

With `NC12CC3CC(C1)CC(C(=O)O)(C3)C2`, the TGI in the test on OVCAR-5 ovarian, in the test with SNB-19 CNS, in the test with NCI-H23 lung, in the test on NCI-H522 lung, with SW-620 colon and in the test on TK-10 renal was greater than 100 µM each time. Further, the TGI with OVCAR-4 ovarian and in the test with UO-31 renal was greater than 100 µM in each case.

In the case of `CCC[CH2][Sn]1([CH2]CCC)[O]C(=O)CN=Cc2c(ccc3ccccc23)[O]1`, the GI50 is 1.93 µM in the test on OVCAR-5 ovarian; 0.229 µM in the test with SNB-19 CNS; 0.235 µM in the test on NCI-H23 lung; 0.0605 µM with NCI-H522 lung; 0.184 µM in the test on SW-620 colon; 0.293 µM in the test on TK-10 renal. Moreover, the GI50 is 1 µM in the test with OVCAR-4 ovarian and 0.635 µM in the test on UO-31 renal. Also, the TGI was 3.35 µM with OVCAR-5 ovarian; 0.526 µM in the test on SNB-19 CNS; 1.11 µM in the test on NCI-H23 lung; 0.198 µM with NCI-H522 lung; 0.417 µM in the test with SW-620 colon; 0.743 µM in the test on TK-10 renal. Further, the TGI in the test with OVCAR-4 ovarian worked out at 2.19 µM; with UO-31 renal it was 1.92 µM.

As for `CC/C=C\C[C@@H](O)C/C=C1/C(=O)C=C[C@H]1C/C=C\CCCC(=O)OC`, the GI50 is 3.35 µM in the test with OVCAR-5 ovarian; 4.62 µM in the test on SNB-19 CNS; 2.4 µM in the test on NCI-H23 lung; 1.65 µM in the test on NCI-H522 lung; 2.84 µM in the test on SW-620 colon; 11.6 µM with TK-10 renal. Besides, the GI50 with OVCAR-4 ovarian was 4.21 µM; in the test with UO-31 renal, 1.73 µM. Further, the TGI came to 12.1 µM in the test on OVCAR-5 ovarian; 19.4 µM in the test with SNB-19 CNS; 6.63 µM in the test with NCI-H23 lung; 3.97 µM in the test on NCI-H522 lung; 8.6 µM in the test with SW-620 colon; 24 µM in the test on TK-10 renal. Also, the values for the TGI in the test with OVCAR-4 ovarian and in the test on UO-31 renal were 16.9 µM and 3.34 µM, respectively.

Regarding `CCCn1c(=S)sc2c1nc(C)n1c(Nc3ccccc3)nnc21`, the GI50 is 21 µM with OVCAR-5 ovarian; 3.94 µM in the test on SNB-19 CNS; 2.77 µM in the test with NCI-H23 lung; 3.57 µM in the test on NCI-H522 lung; 8.41 µM in the test on SW-620 colon; 3.2 µM with TK-10 renal. Moreover, the values for the GI50 with OVCAR-4 ovarian and with UO-31 renal were 3.46 µM and 5.05 µM, respectively. Further, the TGI is greater than 100 µM in the test on OVCAR-5 ovarian; greater than 100 µM in the test on SNB-19 CNS; 11.1 µM in the test with NCI-H23 lung; 15.5 µM with NCI-H522 lung; 22.3 µM with SW-620 colon; 84 µM in the test on TK-10 renal. In addition, the TGI in the test with OVCAR-4 ovarian and in the test with UO-31 renal was greater than 100 µM throughout.

Regarding `CC[C@@]1(c2ccccc2)C2=C(CC(C)(C)CC2=O)Nc2[nH]ncc21`, the GI50 in the test with OVCAR-5 ovarian, with SNB-19 CNS, with NCI-H23 lung, with NCI-H522 lung, with SW-620 colon and in the test with TK-10 renal was greater than 100 µM in each case. Further, the GI50 with OVCAR-4 ovarian and with UO-31 renal was greater than 100 µM in each case. Besides, the TGI in the test with OVCAR-5 ovarian, with SNB-19 CNS, in the test with NCI-H23 lung, with NCI-H522 lung, in the test on SW-620 colon and in the test on TK-10 renal was greater than 100 µM in each case. For the same molecule, the TGI in the test with OVCAR-4 ovarian and in the test on UO-31 renal was greater than 100 µM in each case.

Consider `CCCCCCCCn1ccc2cc(NC(=O)Cn3cc(CN4CCCC4)nn3)ccc21`, for which the GI50 in the test on OVCAR-5 ovarian is 1.78 µM; in the test with SNB-19 CNS it was 1.73 µM; in the test with NCI-H23 lung, 1.92 µM; in the test on NCI-H522 lung, 1.75 µM; with SW-620 colon it was 1.86 µM; in the test on TK-10 renal, 1.71 µM. Besides, the GI50 with OVCAR-4 ovarian is 4.97 µM; in the test with UO-31 renal it was 1.54 µM. For the same molecule, the TGI with OVCAR-5 ovarian amounted to 4 µM; in the test on SNB-19 CNS, 3.34 µM; in the test on NCI-H23 lung it was 3.8 µM; in the test with NCI-H522 lung, 3.6 µM; in the test on SW-620 colon, 3.6 µM; with TK-10 renal, 3.3 µM. For the same molecule, the TGI in the test on OVCAR-4 ovarian was determined as 18.1 µM; with UO-31 renal, 2.88 µM.

On to `CC(=O)O[C@H]1C(=O)[C@@]2(C)C(C(OC(=O)c3ccccc3)[C@]3(O)CC(OC(=O)[C@H](OC(=O)CCC(=O)O)C(NC(=O)c4ccccc4)c4ccccc4)C(C)=C1C3(C)C)C1(OC(C)=O)COC1C[C@@H]2O` (stereo partly drawn), for which the GI50 in the test on OVCAR-5 ovarian is < 0.0146 µM and 0.0324 µM; with UO-31 renal, 14 µM and 61.4 µM. Moreover, the TGI in the test on OVCAR-5 ovarian is greater than 36.1 µM; in the test on SNB-19 CNS, greater than 100 µM; in the test on NCI-H23 lung, greater than 100 µM; with NCI-H522 lung, less than 0.01 µM; in the test with SW-620 colon, greater than 100 µM; with TK-10 renal, 97.1 µM and 15.4 µM. For the same molecule, the TGI in the test on OVCAR-4 ovarian and with UO-31 renal was greater than 100 µM each time.

For the molecule `NC1=NC(c2ccccc2)CC(c2cc(Cl)ccc2O)=N1` (stereo not drawn), the TGI with OVCAR-5 ovarian was found to be 34.6 µM; in the test with SNB-19 CNS it was 30.7 µM; with NCI-H23 lung, 29.4 µM; in the test with NCI-H522 lung, 29 µM; with SW-620 colon, 27 µM; in the test with TK-10 renal it was 40.5 µM. The TGI with OVCAR-4 ovarian is 35.8 µM; in the test on UO-31 renal, 29.2 µM.

As for `C[N+]1=C(/C=C/c2ccc(O)c3ncccc23)C(C)(C)c2ccccc21`, the GI50 in the test with OVCAR-5 ovarian was 2.42 µM; in the test on SNB-19 CNS, 3.74 µM; with NCI-H23 lung it was 2.62 µM; in the test on NCI-H522 lung it was 2.83 µM; with SW-620 colon, 2.85 µM; with TK-10 renal, 3.43 µM. Moreover, the GI50 in the test with OVCAR-4 ovarian is 3.12 µM; with UO-31 renal, 0.58 µM. Further, the TGI is 12.6 µM in the test with OVCAR-5 ovarian; 14.4 µM in the test on SNB-19 CNS; 8.54 µM in the test on NCI-H23 lung; 11.6 µM in the test with NCI-H522 lung; 11.1 µM in the test on SW-620 colon; 14.9 µM in the test with TK-10 renal. Also, the TGI in the test on OVCAR-4 ovarian is 17.2 µM; with UO-31 renal, 5.73 µM.

With `COc1cc2cc(Oc3ccc(NC(=O)Nc4ccc(Cl)c(C(F)(F)F)c4)cc3)c(C)nc2cc1OCCN1CCOCC1`, the GI50 in the test with OVCAR-5 ovarian was 4.02 µM; in the test with SNB-19 CNS it was 3.23 µM; in the test with NCI-H23 lung, 1.12 µM; with NCI-H522 lung it was 1.43 µM; with SW-620 colon, 2.31 µM; in the test with TK-10 renal it was 4.97 µM. Besides, the GI50 is 0.582 µM in the test on OVCAR-4 ovarian and 1.4 µM in the test on UO-31 renal. Moreover, the TGI worked out at 65.2 µM with OVCAR-5 ovarian; 19.8 µM in the test on SNB-19 CNS; 3.89 µM in the test with NCI-H23 lung; 4.07 µM with NCI-H522 lung; 5.52 µM in the test with SW-620 colon; 35.2 µM in the test with TK-10 renal. Also, the values for the TGI with OVCAR-4 ovarian and in the test on UO-31 renal were 3.41 µM and 3.34 µM, respectively.

Regarding `COC(=O)Nc1nc2ccc(Oc3ccc(NC(=O)Nc4cc(C(F)(F)F)ccc4F)cc3)cc2s1`, the GI50 in the test on OVCAR-5 ovarian is greater than 25 µM; in the test with SNB-19 CNS, greater than 25 µM; in the test with NCI-H23 lung it was 9.25 µM; in the test with NCI-H522 lung, greater than 25 µM; in the test with SW-620 colon it was 9.85 µM; with TK-10 renal, greater than 25 µM. Moreover, the GI50 is 7.24 µM with OVCAR-4 ovarian and greater than 25 µM in the test with UO-31 renal. Further, the TGI with OVCAR-5 ovarian, in the test on SNB-19 CNS, with NCI-H23 lung, in the test with NCI-H522 lung, with SW-620 colon and in the test on TK-10 renal was greater than 25 µM in each case. In addition, the TGI with OVCAR-4 ovarian was greater than 20.2 µM; with UO-31 renal, greater than 25 µM.

As to `Cc1cc2c(cc1Cl)SC1=NN(C)S(=O)N1S2(=O)=O` (stereo not drawn), the GI50 in the test on OVCAR-5 ovarian, in the test on SNB-19 CNS, in the test with NCI-H23 lung, in the test on NCI-H522 lung, in the test on SW-620 colon and with TK-10 renal was greater than 100 µM in each case. In addition, the GI50 in the test with OVCAR-4 ovarian is greater than 100 µM; in the test with UO-31 renal, 65.9 µM. In addition, the TGI in the test with OVCAR-5 ovarian, in the test on SNB-19 CNS, in the test with NCI-H23 lung, in the test on NCI-H522 lung, with SW-620 colon and in the test with TK-10 renal was greater than 100 µM throughout. In addition, the TGI with OVCAR-4 ovarian and in the test on UO-31 renal was greater than 100 µM in each case.

With `COc1ccc2c(c1)CCCN2c1c2ccccc2nc2ccccc12`, the GI50 in the test with OVCAR-5 ovarian was 0.544 µM; in the test on SNB-19 CNS, 0.546 µM; in the test with NCI-H23 lung, 0.356 µM; in the test on NCI-H522 lung, 0.384 µM; in the test on SW-620 colon it was 0.403 µM; in the test with TK-10 renal, 3.38 µM. The figures for the GI50 with OVCAR-4 ovarian and with UO-31 renal were 0.812 µM and 0.69 µM, respectively. For the same molecule, the TGI was greater than 100 µM with OVCAR-5 ovarian; greater than 100 µM in the test on SNB-19 CNS; 5.48 µM in the test with NCI-H23 lung; 16.2 µM in the test with NCI-H522 lung; greater than 100 µM in the test on SW-620 colon; greater than 100 µM in the test on TK-10 renal. In addition, the TGI in the test with OVCAR-4 ovarian and with UO-31 renal was greater than 100 µM throughout.

Regarding `O=C(O)c1nn(-c2ccccc2-c2n[nH]c(=O)[nH]c2=O)c(=O)[nH]c1=O`, the TGI in the test with OVCAR-5 ovarian, in the test with SNB-19 CNS, in the test with NCI-H23 lung, in the test on NCI-H522 lung, with SW-620 colon and in the test on TK-10 renal was greater than 100 µM in each case. Besides, the TGI in the test with OVCAR-4 ovarian and in the test with UO-31 renal was greater than 100 µM each time.
